Test results reported in patent US8785457B2 (Cellzome Limited, priority 2009, dated 2014).
Where two headings read alike, the source gives them in different places.

What was measured:
[1] = target: T1, PI3 Kgamma (PI3 Kg) (Homo sapiens, UniProt P48736); test: kinobeads assay, PI3Kgamma; assay type: binding; settings: kinobeads assay, Table 6; read-out: Inhibition values (IC50) PI3Kg
T1 construct: endogenous in cells; host or cells: cell lysate
Outline: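 Read-out is multiplexed immunodetection of kinase eluted from phenylmorpholin-chromen ligand beads after their incubation in cell lysate with test compound at various concentrations. Reduced capture reflects competition, and per-kinase dose-response curves yield IC50.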

[2] = target: T2, mTOR (Homo sapiens, UniProt P42345); test: mTOR kinobeads assay (competitive binding in Jurkat cell lysate, immunodetection); settings: kinobeads assay
T2 construct: endogenous in cells; host or cells: Jurkat, clone E6-1 (ATCC TIB-152) cell lysate
Outline: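 IC50 derived from dose-response curves of mTOR captured on immobilized phenylmorpholin-chromen beads, detected by antibody dot blot with infrared fluorescence.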

[3] = Table 6, read-out: Inhibition values (IC50) mTOR
[4] = Table 4, read-out: Inhibition values (IC50) mTor

T1 sequence (P48736 whole entry): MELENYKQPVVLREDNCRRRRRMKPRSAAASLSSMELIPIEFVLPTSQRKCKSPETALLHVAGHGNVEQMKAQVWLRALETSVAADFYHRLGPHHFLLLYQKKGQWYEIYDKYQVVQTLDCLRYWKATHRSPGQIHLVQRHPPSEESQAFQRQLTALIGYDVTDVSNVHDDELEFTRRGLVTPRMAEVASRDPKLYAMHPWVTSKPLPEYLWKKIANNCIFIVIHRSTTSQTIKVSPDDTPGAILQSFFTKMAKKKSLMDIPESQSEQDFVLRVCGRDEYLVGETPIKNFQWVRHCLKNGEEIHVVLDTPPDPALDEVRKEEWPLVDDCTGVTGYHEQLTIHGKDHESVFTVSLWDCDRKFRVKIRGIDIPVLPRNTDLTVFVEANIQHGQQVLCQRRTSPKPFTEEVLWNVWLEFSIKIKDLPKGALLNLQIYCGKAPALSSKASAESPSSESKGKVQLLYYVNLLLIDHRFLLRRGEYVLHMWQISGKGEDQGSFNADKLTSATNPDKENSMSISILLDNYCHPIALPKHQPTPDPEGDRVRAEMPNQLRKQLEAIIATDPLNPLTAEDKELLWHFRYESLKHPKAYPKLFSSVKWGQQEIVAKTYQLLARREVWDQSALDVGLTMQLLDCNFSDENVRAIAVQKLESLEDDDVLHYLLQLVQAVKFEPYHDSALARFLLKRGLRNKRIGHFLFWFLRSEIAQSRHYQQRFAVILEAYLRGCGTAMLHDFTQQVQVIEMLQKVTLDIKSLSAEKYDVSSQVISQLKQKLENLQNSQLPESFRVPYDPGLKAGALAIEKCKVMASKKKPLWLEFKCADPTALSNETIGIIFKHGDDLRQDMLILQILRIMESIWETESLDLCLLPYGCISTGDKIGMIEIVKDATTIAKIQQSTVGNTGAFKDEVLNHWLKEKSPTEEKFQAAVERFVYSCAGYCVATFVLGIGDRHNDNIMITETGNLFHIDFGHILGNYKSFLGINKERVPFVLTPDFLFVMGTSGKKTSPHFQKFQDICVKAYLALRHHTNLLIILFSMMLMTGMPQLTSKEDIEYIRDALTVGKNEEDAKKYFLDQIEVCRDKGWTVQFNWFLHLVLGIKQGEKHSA

| SMILES | IC50 [1] | IC50 [2, 3] | IC50 [2, 4] |
| --- | --- | --- | --- |
| Cc1cc(NC(=O)Nc2ccc(-c3nc4c(c(N5CCOC[C@@H]5C)n3)CN(C)C4)cc2)no1 [Example 72, (S)-1-(4-(6-methyl-4-(3-methylmorpholino)-6,7-dihydro-5H-pyrrolo[3,4-d]pyrimidin-2-yl)phenyl)-3-(5-methylisoxazol-3-yl)urea] | > 10 µM | 0.1 to 1 µM |  |
| CCNC(=O)Nc1ccc(-c2nc3c(c(N4CCOC[C@@H]4C)n2)CN(C(=O)OC)C3)cc1 [Example 89, (S)-methyl 2-(4-(3-ethylureido)phenyl)-4-(3-methylmorpholino)-5H-pyrrolo[3,4-d]pyrimidine-6(7H)-carboxylate] | > 10 µM | < 0.1 µM |  |
| CCNC(=O)Nc1ccc(-c2nc3c(c(N4CCOC[C@@H]4C)n2)CCN(C(=O)OC)C3)cc1 [Example 81, (S)-methyl 2-(4-(3-ethylureido)phenyl)-4-(3-methylmorpholino)-5,6-dihydropyrido[3,4-d]pyrimidine-7(8H)-carboxylate] | > 10 µM | < 0.1 µM |  |
| C[C@H]1COCCN1c1nc(-c2ccc(NC(=O)NC3CC3)cc2)nc2c1CCN(C(=O)C(C)(C)C)C2 [Example 64, (S)-1-cyclopropyl-3-(4-(4-(3-methylmorpholino)-7-pivaloyl-5,6,7,8-tetrahydropyrido[3,4-d]pyrimidin-2-yl)phenyl)urea] | > 10 µM | < 0.1 µM |  |
| CC(=O)N1CCc2c(nc(-c3ccc(NC(=O)NC4CC4)cc3)nc2N2CCOC[C@@H]2C)C1 [Example 62, (S)-1-(4-(7-acetyl-4-(3-methylmorpholino)-5,6,7,8-tetrahydropyrido[3,4-d]pyrimidin-2-yl)phenyl)-3-cyclopropylurea] | > 10 µM | < 0.1 µM | < 0.1 µM |
| CCNC(=O)Nc1ccc(-c2nc3c(c(N4CCOCC4)n2)CN(C)C3)cc1 [Example 69, 1-Ethyl-3-(4-(6-methyl-4-morpholino-6,7-dihydro-5H-pyrrolo[3,4-d]pyrimidin-2-yl)phenyl)urea] | > 10 µM | < 0.1 µM |  |
| CCNC(=O)Nc1ccc(-c2nc3c(c(N4CCOCC4)n2)CCN(C(=O)OCC)C3)cc1 [Example 96, ethyl 2-(4-(3-ethylureido)phenyl)-4-morpholino-5,6-dihydropyrido[3,4-d]pyrimidine-7(8H)-carboxylate] | > 10 µM | 0.1 to 1 µM |  |
| CCNC(=O)Nc1ccc(-c2nc3c(c(N4CCOC[C@@H]4C)n2)CCN(C(=O)OCC)C3)cc1 [Example 77, (S)-ethyl 2-(4-(3-ethylureido)phenyl)-4-(3-methylmorpholino)-5,6-dihydropyrido[3,4-d]pyrimidine-7(8H)-carboxylate] | > 10 µM | < 0.1 µM |  |
| CCNC(=O)Nc1ccc(-c2nc3c(c(N4CCOC[C@@H]4C)n2)CN(C)C3)cc1F [Example 85, (S)-1-ethyl-3-(2-fluoro-4-(6-methyl-4-(3-methylmorpholino)-6,7-dihydro-5H-pyrrolo[3,4-d]pyrimidin-2-yl)phenyl)urea] | > 10 µM | 0.1 to 1 µM |  |
| C[C@H]1COCCN1c1nc(-c2ccc(NC(=O)NCCO)cc2)nc2c1CN(C)C2 [Example 73, (S)-1-(2-hydroxyethyl)-3-(4-(6-methyl-4-(3-methylmorpholino)-6,7-dihydro-5H-pyrrolo[3,4-d]pyrimidin-2-yl)phenyl)urea] | > 10 µM | < 0.1 µM |  |
| C[C@H]1COCCN1c1nc(-c2ccc(NC(=O)NC3CC3)cc2)nc2c1CCN(C(=O)C1CC1)C2 [Example 60, (S)-1-(4-(7-(cyclopropanecarbonyl)-4-(3-methylmorpholino)-5,6,7,8-tetrahydropyrido[3,4-d]pyrimidin-2-yl)phenyl)-3-cyclopropylurea] | > 10 µM | < 0.1 µM | < 0.1 µM |
| CCNC(=O)Nc1ccc(-c2nc3c(c(N4CCOC[C@@H]4C)n2)CCN(C(=O)NCC)C3)cc1 [Example 87, (S)—N-ethyl-2-(4-(3-ethylureido)phenyl)-4-(3-methylmorpholino)-5,6-dihydropyrido[3,4-d]pyrimidine-7(8H)-carboxamide] | > 10 µM | < 0.1 µM |  |
| CCNC(=O)Nc1ccc(-c2nc3c(c(N4CCOC[C@@H]4C)n2)CCN(C(=O)Cc2cccnc2)C3)cc1 [Example 91, (S)-1-ethyl-3-(4-(4-(3-methylmorpholino)-7-(2-(pyridin-3-yl)acetyl)-5,6,7,8-tetrahydropyrido[3,4-d]pyrimidin-2-yl)phenyl)urea] | > 10 µM | < 0.1 µM |  |
| C[C@H]1COCCN1c1nc(-c2ccc(NC(=O)Nc3ccn(C)n3)cc2)nc2c1CN(C)C2 [Example 84, (S)-1-(1-methyl-1H-pyrazol-3-yl)-3-(4-(6-methyl-4-(3-methylmorpholino)-6,7-dihydro-5H-pyrrolo[3,4-d]pyrimidin-2-yl)phenyl)urea] | > 10 µM | 0.1 to 1 µM |  |
| CCNC(=O)Nc1ccc(-c2nc3c(c(N4CCOC[C@@H]4C)n2)CN(C(C)C)C3)cc1 [Example 74, (S)-1-ethyl-3-(4-(6-isopropyl-4-(3-methylmorpholino)-6,7-dihydro-5H-pyrrolo[3,4-d]pyrimidin-2-yl)phenyl)urea] | > 10 µM | < 0.1 µM |  |
| CCNC(=O)Nc1ccc(-c2nc3c(c(N4CCOC[C@@H]4C)n2)CCN(CC(C)C)C3)cc1.O=CO [Example 76, (S)-1-ethyl-3-(4-(7-isobutyl-4-(3-methylmorpholino)-5,6,7,8-tetrahydropyrido[3,4-d]pyrimidin-2-yl)phenyl)urea formate] | > 10 µM | < 0.1 µM |  |
| CCNC(=O)Nc1ccc(-c2nc3c(c(N4CCOC[C@@H]4C)n2)CN(C(=O)OC(C)(C)C)C3)cc1 [Example 1, (S)-tert-butyl 2-(4-(3-ethylureido)phenyl)-4-(3-methylmorpholino)-5H-pyrrolo[3,4-d]pyrimidine-6(7H)-carboxylate] |  | 0.1 to 1 µM | 0.1 to 1 µM |
| CCNC(=O)Nc1ccc(-c2nc3c(c(N4CCOC[C@@H]4C)n2)CCN(C(C)=O)C3)cc1 [Example 59, (S)-1-(4-(7-acetyl-4-(3-methylmorpholino)-5,6,7,8-tetrahydropyrido[3,4-d]pyrimidin-2-yl)phenyl)-3-ethylurea] |  | < 0.1 µM | < 0.1 µM |

The remaining lines, values ahead:

| IC50 [1] | IC50 [2, 3] | IC50 [2, 4] | SMILES |
| --- | --- | --- | --- |
| > 10 µM | 0.1 to 1 µM |  | CCNC(=O)Nc1cc(F)c(-c2nc3c(c(N4CCOC[C@@H]4C)n2)CCN(C)C3)cc1F [Example 108, (S)-1-(2,5-difluoro-4-(7-methyl-4-(3-methylmorpholino)-5,6,7,8-tetrahydropyrido[3,4-d]pyrimidin-2-yl)phenyl)-3-ethylurea] |
|  | 0.1 to 1 µM |  | C[C@H]1COCCN1c1nc(-c2ccc(NC(=O)NC3CC3)cc2)nc2c1CN(CC(F)(F)F)C2 [Example 101, (S)-1-cyclopropyl-3-(4-(4-(3-methylmorpholino)-6-(2,2,2-trifluoroethyl)-6,7-dihydro-5H-pyrrolo[3,4-d]pyrimidin-2-yl)phenyl)urea] |
| > 10 µM | 0.1 to 1 µM |  | CCNC(=O)Nc1ccc(-c2nc3c(c(N4CCOC[C@@H]4C)n2)CN(C(=O)OCC)C3)c(F)c1 [Example 113, (S)-ethyl-2-(4-(3-ethylureido)-2-fluorophenyl)-4-(3-methylmorpholino)-5H-pyrrolo[3,4-d]pyrimidine-6(7H)-carboxylate] |
| > 10 µM | 0.1 to 1 µM |  | CCOC(=O)N1Cc2nc(-c3ccc(NC(=O)NCCO)c(F)c3)nc(N3CCOC[C@@H]3C)c2C1 [Example 104, (S)-ethyl-2-(3-fluoro-4-(3-(2-hydroxyethyl)ureido)phenyl)-4-(3-methylmorpholino)-5H-pyrrolo[3,4-d]pyrimidine-6(7H)-carboxylate] |
| > 10 µM | 0.1 to 1 µM |  | CCOC(=O)N1Cc2nc(-c3ccc(NC(=O)NC4CC4)c(F)c3)nc(N3CCOC[C@@H]3C)c2C1 [Example 105, (S)-ethyl 2-(4-(3-cyclopropylureido)-3-fluorophenyl)-4-(3-methylmorpholino)-5H-pyrrolo[3,4-d]pyrimidine-6(7H)-carboxylate] |
| > 10 µM | 0.1 to 1 µM |  | CCNC(=O)Nc1ccc(-c2nc3c(c(N4CCOC[C@@H]4C)n2)CN(C(=O)OCC)CC3)cc1 [Example 107, (S)-ethyl 2-(4-(3-ethylureido)phenyl)-4-(3-methylmorpholino)-7,8-dihydropyrido[4,3-d]pyrimidine-6(5H)-carboxylate] |
| > 10 µM | 0.1 to 1 µM |  | CCNC(=O)Nc1ccc(-c2nc3c(c(N4CCOC[C@@H]4C)n2)CN(C(=O)OCC)C3)cc1F [Example 103, (S)-ethyl-2-(4-(3-ethylureido)-3-fluorophenyl)-4-(3-methylmorpholino)-5H-pyrrolo[3,4-d]pyrimidine-6(7H)-carboxylate] |
| > 10 µM | 0.1 to 1 µM |  | CCNC(=O)Nc1ccc(-c2nc3c(c(N4CCOCC4)n2)CN(C(=O)C(C)(C)C)C3)cc1 [Example 100, 1-ethyl-3-(4-(4-morpholino-6-pivaloyl-6,7-dihydro-5H-pyrrolo[3,4-d]pyrimidin-2-yl)phenyl)urea] |
| > 10 µM | < 0.1 µM |  | CCOC(=O)N1Cc2nc(-c3ccc(NC(=O)NCCF)cc3)nc(N3CCOC[C@@H]3C)c2C1 [Example 120, (S)-ethyl 2-(4-(3-(2-fluoroethyl)ureido)phenyl)-4-(3-methylmorpholino)-5H-pyrrolo[3,4-d]pyrimidine-6(7H)-carboxylate] |
| > 10 µM | < 0.1 µM |  | C[C@H]1COCCN1c1nc(-c2ccc(NC(=O)NC3CC3)cc2)nc2c1CN(C(=O)C1CCOCC1)C2 [Example 129, (S)-1-cyclopropyl-3-(4-(4-(3-methylmorpholino)-6-(tetrahydro-2H-pyran-4-carbonyl)-6,7-dihydro-5H-pyrrolo[3,4-d]pyrimidin-2-yl)phenyl)urea] |
